Reference: patent US20090099174A1, “COMBINATION 059” (ASTRAZENECA AB, priority 2007, published 2009)

Experiments:
A2058 cell line = assay: 96-hour MTS viable cell number assay, A2058 cell line (monotherapy and concurrent combination); type: cell-based; settings: Homo sapiens, 96-hour viable cell number endpoint by MTS, read-out: IC50 monotherapy (Geomean)
From the text: The objective of this assay was to determine the in-vitro combination interaction when combining AZD6244 or 2-(2-fluoro-4-iodophenylamino)-N-(2-hydroxyethoxy)-1,5-dimethyl-6-oxo-1,6-dihydropyridine-3-carboxamide concurrently with Compound A or Rapamycin in the A2058, NCI-H727, Calu-6, NCI-H2291, NCI-H23, A549 and NCI-H460 cell lines using a 96-hour viable cell number endpoint (MTS).
The A2058 cell line was routinely cultured and assayed in DMEM (phenol red free)+10% Foetal Calf Serum (FCS)+1% glutamine. The A2058 cell line is wild type for HRAS, KRAS and NRAS and mutant for the BRAF V600E mutation.
MTS viable cell number assays were carried out to determine seeding densities required for 96 hours of exponential growth. Cells were seeded into 96-well plates at their pre-determined seeding density allowing for log phase growth. After 4-hours cells were dosed with monotherapy AZD6244, 2-(2-fluoro-4-iodophenylamino)-N-(2-hydroxyethoxy)-1,5-dimethyl-6-oxo-1,6-dihydropyridine-3-carboxamide, Compound A, or Rapamycin using the Hydra/ECHO 550 platform. Following incubation with compound for 96-hours viable cell number was determined using an MTS viable cell number (Promega™) endpoint.
Concurrent combination: Cells were seeded into 96-well plates at the above-determined seeding density allowing for log phase growth. After 4 hours cells were dosed concurrently with
Non-linear MEA (Median Effect Analysis): The combination interaction between 2 active agents, each with well defined IC50 monotherapy dose responses was assessed using equal inhibitory effect ratios of the two agents (IC60, IC50, IC40, IC30, IC20, IC10). A combination index (CI)<0.85 indicates a synergistic interaction, CI 0.85-1.2 additivity and a CI>1.2 antagonism.
That is a fixed dose of the partially active agent (in MTS assays) was applied across the full dose response of the active agent. Relative potency is defined as the ratio of the combination IC50 to the monotherapy IC50.

Calu-6 cell line = assay: 96-hour MTS viable cell number assay, Calu-6 cell line (monotherapy and combination); settings: Homo sapiens, Calu-6, 96 h, read-out: IC50 monotherapy (Geomean)
Description: (§5) The NCI-H727, Calu-6, NCI-H2291, NCI-H23, A549 and NCI-H460 cell lines were routinely cultured and assayed in RPMI (phenol red free)+10% Foetal Calf Serum (FCS)+1% glutamine.
(§6) MTS viable cell number assays were carried out to determine seeding densities required for 96 hours of exponential growth. Cells were seeded into 96-well plates at their pre-determined seeding density allowing for log phase growth. […] Following incubation with compound for 96-hours viable cell number was determined using an MTS viable cell number (Promega™) endpoint.

Calu-6 xenografts = assay: Calu-6 tumour xenograft growth in nude mice; type: in vivo
Description: (§1) LoVo cells were grown in DMEM (Gibco) 10% FCS 1% Glutamine medium and HCT116 cells were grown in McCoys 5A 10% FCS 1% Glutamine, A549a and CaLu-6 cells were grown in RPMI1640 10% FCS 1% Glutamine. […] cells were implanted into the flank of nude mice (LoVo no matrigel, HCT-116, Calu-6 and A549a plus 50% matrigel).
(§2) When mean tumour size reached approximately 0.2 cm^3, the mice were randomized into control and treatment groups. The treatment groups received either 25 or 50 mg/kg AZD6244 (vehicle: HPMC/Tween milled overnight), or 20 mg/kg Compound A (vehicle 10% DMSO, 90% propylene glycol) by oral gavage, Rapamycin was given 4 mg/kg once weekly (10% DMSO-10% Cremaphor-10% Ethanol-70% water for injection. When administered in combination, Compound A was given 2 hours after the oral dose of the other compound. The control group received vehicle (10% DMSO 90% propylene glycol) alone, once daily by oral gavage.
(§3) Tumour volumes (measured by caliper), animal body weight and tumour condition were recorded twice weekly for the duration of the study. Mice were sacrificed by CO2 euthanasia. The tumour volume was calculated (taking length to be the longest diameter across the tumour and width to be the corresponding perpendicular diameter using the formula: (length×width)×√(length×width)×(π/6). Growth inhibition from the start of treatment was assessed by comparison of the differences in tumour volume between control and treated groups. Because the variance in mean tumour volume data increases proportionally with volume (and is therefore disproportionate between groups), data were log-transformed to remove any size dependency before statistical evaluation.
(§4) Statistical significance was evaluated using a one-tailed, two-sample t test. To analyze the data from the combination study, the statistical tool SigmaStat has been used. A two-way ANOVA test was performed using the factors concentration of drug A and concentration of drug B. The data analyzed was Log (final tumour volume)-Log (initial tumour volume) calculated for each individual group at the end of the study. […]

HCT-116 xenografts = assay: HCT-116 tumour xenograft growth in nude mice; type: in vivo
Description: as §1
When mean tumour size reached approximately 0.2 cm^3, the mice were randomized into control and treatment groups. […]
as §3, with “Mice were sacrificed by CO2 euthanasia.” left out
Statistical significance was evaluated using a one-tailed, two-sample t test. […]

A549 cell line = assay: 96-hour MTS viable cell number assay, A549 cell line (monotherapy and combination); settings: for IC50: Homo sapiens, A549, 96 h, read-out: IC50 monotherapy (Geomean)
Description: as §5, §6

NCI-H2291 cell line = assay: 96-hour MTS viable cell number assay, NCI-H2291 cell line (monotherapy and combination); settings: for IC50: Homo sapiens, NCI-H2291, 96 h, read-out: IC50 monotherapy (Geomean)
Description: as §5, §6

NCI-H23 cell line = assay: 96-hour MTS viable cell number assay, NCI-H23 cell line (monotherapy and combination); settings: for IC50: Homo sapiens, NCI-H23, 96 h, read-out: IC50 monotherapy (Geomean)
Description: as §5, §6

NCI-H460 cell line = assay: 96-hour MTS viable cell number assay, NCI-H460 cell line (monotherapy and combination); settings: for IC50: Homo sapiens, NCI-H460, 96 h, read-out: IC50 monotherapy (Geomean)
Description: as §5, §6

LoVo xenografts = assay: LoVo tumour xenograft growth in nude mice; type: in vivo
Description: as §1, §2, §3
Statistical significance was evaluated using a one-tailed, two-sample t test. To analyze the data from the combination study, the statistical tool SigmaStat has been used. A two-way ANOVA test was performed using the factors concentration of drug A and concentration of drug B. The data analyzed was Log (final tumour volume)-Log (initial tumour volume) calculated for each individual group at the end of the study. This tool is used to assess whether there is a main effect of drug A, a main effect of drug B plus a significant interaction between the two compounds A and B (eg. one compound influences the effect of the other compound) which may be interpreted as antagonism, additivity or synergism.

A549a xenografts = assay: A549a tumour xenograft growth in nude mice; type: in vivo
Description: as §1, §2, §3, §4

pERK 1/2(Thr202/Tyr204) = assay: pharmacodynamic effect of AZD6244 against pERK 1/2; type: cell-based
NCI-H727 cell line = assay: 96-hour MTS viable cell number assay, NCI-H727 cell line (monotherapy and combination); settings: Homo sapiens, NCI-H727, 96 h, read-out: IC50 monotherapy (Geomean)
Description: as §5, §6

[1] = 20 mg/kg Compound A, oral gavage

IC50 (Calu-6 cell line) [nM]	IC50 (A549 cell line) [µM]	IC50 (NCI-H2291 cell line) [nM]	IC50 (NCI-H23 cell line) [nM]	IC50 (NCI-H460 cell line) [µM]	IC50 (NCI-H727 cell line) [nM]	SMILES	IC50 (A2058 cell line) [nM]	other results
						Cc1cc(C(=O)NOCCO)c(Nc2ccc(I)cc2F)n(C)c1=O [2-(2-fluoro-4-iodophenylamino)-N-(2-hydroxyethoxy)-1,5-dimethyl-6-oxo-1,6-dihydropyridine-3-carboxamide]	25	
257	12.4	704	1840	32.4	36	Cn1cnc2c(F)c(Nc3ccc(Br)cc3Cl)c(C(=O)NOCCO)cc21 [AZD6244]	526	reduction in geometric mean delta tumour volume compared with the vehicle treated control (Calu-6 xenografts; 50 mg/kg once daily AZD6244): 93.2%; reduction in geometric mean delta tumour volume compared with the vehicle control (HCT-116 xenografts; 25 mg/kg AZD6244, oral gavage): 59%; reduction in geometric mean delta tumour volume compared with the vehicle treated control (LoVo xenografts; 25 mg/kg twice daily AZD6244): 38.7%; reduction in geometric mean delta tumour volume compared with the vehicle control (LoVo xenografts; 50 mg/kg AZD6244, oral gavage): 43%; reduction in geometric mean delta tumour volume compared with the vehicle treated control (A549a xenografts; 25 mg/kg once daily AZD6244): 53.4%; ED90, pharmacodynamic effect against pERK 1/2(Thr202/Tyr204) (pERK 1/2(Thr202/Tyr204)): 333 nM; ED95, pharmacodynamic effect against pERK 1/2(Thr202/Tyr204) (pERK 1/2(Thr202/Tyr204)): 1000 nM; EC50 (pERK 1/2(Thr202/Tyr204); read-out: ED50, pharmacodynamic effect against pERK 1/2(Thr202/Tyr204)): 20 nM
50	0.037	23	30	0.026	68	COc1ccc(-c2ccc3c(N4CCOC[C@@H]4C)nc(N4CCOC[C@@H]4C)nc3n2)cc1CO [Compound A, [5-[2,4-bis[(3S)-3-methylmorpholin-4-yl]pyrido[5,6-e]pyrimidin-7-yl]-2-methoxyphenyl]methanol]	46	reduction in geometric mean delta tumour volume compared with the vehicle treated control (Calu-6 xenografts; 20 mg/kg once daily Compound A): 44.9%; reduction in geometric mean delta tumour volume compared with the vehicle control (HCT-116 xenografts; [1]): 24%; reduction in geometric mean delta tumour volume compared with the vehicle control (LoVo xenografts; [1]): 66%; reduction in geometric mean delta tumour volume compared with the vehicle treated control (A549a xenografts; 20 mg/kg once daily Compound A): 94.1%
> 10000	> 10	> 10000	> 10000	> 10	> 10000	CO[C@H]1C[C@@H]2CC[C@@H](C)[C@@](O)(O2)C(=O)C(=O)N2CCCC[C@H]2C(=O)O[C@H]([C@H](C)C[C@@H]2CC[C@@H](O)[C@H](OC)C2)CC(=O)[C@H](C)/C=C(\C)[C@@H](O)[C@@H](OC)C(=O)[C@H](C)C[C@H](C)/C=C/C=C/C=C/1C [Rapamycin]	> 10000	reduction in geometric mean delta tumour volume compared with the vehicle treated control (Calu-6 xenografts; 4 mg/kg once weekly Rapamycin): 37.2%; growth inhibitory effect reached (A549 cell line; A549, regardless of the presence of AZD6244): < 50%; growth inhibitory effect reached (NCI-H2291 cell line; NCI-H2291, regardless of the presence of AZD6244): < 50%; growth inhibitory effect reached (NCI-H23 cell line; NCI-H23, regardless of the presence of AZD6244): < 50%; growth inhibitory effect reached (NCI-H460 cell line; NCI-H460, regardless of the presence of AZD6244): < 50%; reduction in geometric mean delta tumour volume compared with the vehicle treated control (LoVo xenografts; 4 mg/kg Rapamycin): 38.2%; reduction in geometric mean delta tumour volume compared with the vehicle treated control (A549a xenografts; 4 mg/kg once weekly Rapamycin): 69.5%
